Where no end group is shown, it is not given here. [ ]: non-standard residue; d: D form.
Legend:
3T3-L1 adipocytes = experiment: Free Fatty Acid Levels in cultured 3T3-L1 Adipocytes; settings: for Free Fatty Acid Levels in 3T3-L1 Adipocytes Expressed as a Percent Isoproterenol Control, Percent of Control Value: test peptides 25 μM, 20-22 hours then isoproterenol (1 nM) 3 hours
Protocol: Following 12-15 days' differentiation, test peptides were added to a final concentration of 25 μM and incubated for 20-22 hours in Adipocyte Maintenance Medium. After 20-22 hours, isoproterenol (1 nM) was added to all wells except untreated controls and test peptides were replenished. Cells were incubated for a further 3 hours in Assay Buffer (Zen-Bio). Free fatty acid concentrations in the media were determined using a Free Fatty Acid Assay Kit (Zen-Bio) according to the manufacturer's instructions using a plate reader (540 nm). Absorbance values were corrected for untreated background and expressed relative to isoproterenol treated cells. Treatment with isoproterenol (1 nM) alone was used as the free fatty acid level stimulatory control. The relative standard deviation of the isoproterenol control was <10%.

MDA-MB-231 cells [1] = experiment: Caspase 3/7 Activity (Caspase-Glo 3/7 Assay) in MDA-MB-231 cells; type: cell-based, human; settings: test peptides 10 μM, 18 hours, relative to DMSO control
Protocol: The effect of the peptides on cell death/survival can be assessed using a caspase-3 assay. […] MDA-MB-231 cells were grown in DMEM Medium supplemented with 10% FBS. […] Luminescence for each sample well on the plate was measured by Envision 2104 Multilabel Reader (PerkinElmer, Santa Clara, Calif.). Activity was calculated relative to DMSO control.

MCF-7 cells = experiment: Cell viability, MTS Assay in MCF-7 Cells; settings: test peptides 10 μM, 72 hours, relative to DMSO control
MDA-MB-231 cells [2] = experiment: Cell viability, MTS Assay in MDA-MB-231 Cells; settings: for MTS Assay in MDA-MB-231 Cells, Percent of Control Activity: 72 hours, relative to DMSO control, concentration not given

| Molecule | Free Fatty Acid Levels in 3T3-L1 Adipocytes Expressed as a Percent Isoproterenol Control, Percent of Control Value (3T3-L1 adipocytes) | further results |
| --- | --- | --- |
| 10 (SVWKV[dA]VQTFNCYYYVLQ[dA]L) [compound 10] | 46% | – |
| 8 (SVWKVAVQTFNCYYYVLQALIN) [compound 8] | 117% | – |
| 2 (PIVLELIPLKIFEIGPVFTL) [compound 2] | 92% | Caspase 3/7 Activity in MDA-MB-231 Cells, Percent of Control Activity (MDA-MB-231 cells [1]): 99%; MTS Assay in MCF-7 Cells, Percent of Control Activity (MCF-7 cells): 71%; MTS Assay in MDA-MB-231 Cells, Percent of Control Activity (MDA-MB-231 cells [2]): 78% |
| 5 (P[dA]VLELIPLKIFEI[dA]PVFT) [compound 5] | 84% | – |
| 9 (SVWKVAVQTFNCYYYVLQAL; not fully specified (residues 6, 19)) [compound 9] | 134% | – |
| 7 (MSVWKVAVQTFNCYYYVLQALIN) [compound 7] | 128% | Caspase 3/7 Activity in MDA-MB-231 Cells, Percent of Control Activity (MDA-MB-231 cells [1]): 54%; MTS Assay in MCF-7 Cells, Percent of Control Activity (MCF-7 cells): 64%; MTS Assay in MDA-MB-231 Cells, Percent of Control Activity (MDA-MB-231 cells [2]): 83% |
| CN[C@@H]1C[C@H]2O[C@@](C)([C@@H]1OC)n1c3ccccc3c3c4c(c5c6ccccc6n2c5c31)C(=O)NC4 [staurosporine, reference compound] | – | Cell viability, % of the DMSO control value (MDA-MB-231 cells [2]; Staurosporine 10 uM, MDA-MB-231 cells, positive control): 3% |
| 15 (VSVLES[dA]LGRTR[dA]) [compound 15] | 126% | – |
| 14 (VSVLES[dA]LGRTRV) [compound 14] | 94% | – |
| 17 (MRCERYTSIPRSEMVNASIIFM) [compound 17] | 108% | Caspase 3/7 Activity in MDA-MB-231 Cells, Percent of Control Activity (MDA-MB-231 cells [1]): 51%; MTS Assay in MCF-7 Cells, Percent of Control Activity (MCF-7 cells): 54%; MTS Assay in MDA-MB-231 Cells, Percent of Control Activity (MDA-MB-231 cells [2]): 79% |
| 20 (R[dA]ERYTSIPRSEMVN[dA]SI[dA]F) [compound 20] | 96% | – |
| 3 (PIVLELIPLKIFEIGPVFTL) [compound 3] | 68% | – |
| 13 (VSVLESALGRTRV; not fully specified (residue 7)) [compound 13] | 123% | – |
| 19 (RCERYTSIPRSEMVN[dA]SIIF) [compound 19] | 78% | – |
| insulin [reference compound] | – | Free fatty acid levels, % of the isoproterenol control value (3T3-L1 adipocytes; insulin 100 nM, positive control): < 5% |
| 12 (MVSVLESALGRTRV) [compound 12] | 124% | Caspase 3/7 Activity in MDA-MB-231 Cells, Percent of Control Activity (MDA-MB-231 cells [1]): 44%; MTS Assay in MCF-7 Cells, Percent of Control Activity (MCF-7 cells): 32%; MTS Assay in MDA-MB-231 Cells, Percent of Control Activity (MDA-MB-231 cells [2]): 74% |
| 18 (RCERYTSIPRSEMVNASIIFM) [compound 18] | 96% | – |

— patent publication US20220324925A1, “THERAPEUTIC PEPTIDES” (COHBAR, INC., priority 2019, published 2022)
